According to patent US6686391B2, “N-chlorophenylcarbamate and N-chlorophenylthiocarbamate compositions” (University of Arizona Foundation, priority 1995, dated 2004):
In brackets after ≈: the same amount, converted by molar mass. Read-outs that look alike come from different tables or passages of the source.

Assays:
[1] = test system: herpes; assay: In vivo herpes screening test; set-up: species or system mice
Description: In an in vivo herpes screening test, at a dose of 150 mg/kg dose, 60% of the mice survived with a 10.2 mean death date. The positive control was acyclovir at 75 mg/kg dose; 60% of the mice survived with a mean death date of 17.2 days.

[2] = test system: HIV replication in monocytes (chronic HIV-1 infected promonocytic cells U1); assay: HIV chronic study, chronically HIV-1 infected promonocytic U1 cells; type: cell-based
Description: (§1) Chronic HIV-1 infected promonocytic cells U1 were derived from an acute HIV-1 infection of the promonocytic cell line, U937. The chronic HIV-1 infected T-cells, ACH-2, were derived from an acute HIV-1 infection of the T cell line, A3.01.
(§2) These cells were cultured in medium and the phorbol ester, PMA. PMA causes the cells (both U1 and ACH-2) to be activated and not divide but it also causes the U-1 cells to differentiate. […] Cell viability was measured when these cell lines were treated with the test compounds.
(§3) Both cell lines constituitively produce a small amount of HIV-1. ACH-2 cell lines tend to produce more HIV-1 than U1 cells as shown by p-24 ELISA. When either cell line is cultured in the presence of PMA there is an increase in the quantity of HIV-1 produced as measured by the p-24 antigen ELISA.
(§4) In addition, the number of […] positive HIV mRNA expressing cells per microscopic field is measured. Comparisons can be made from these numbers since the same number of cells were adhered to the glass slides for each drug concentration (10×10^6 cells/ml).

[3] = test system: HIV; assay: Acute HIV study, in vitro acute model; type: cell-based; conditions: in vitro acute model for HIV
Description: In an in vitro acute model for HIV chloropropham inhibited viral replication by 47% at 10 μg/ml and AZT inhibited viral replication by 98% at 1 μg/ml. The therapeutic index for chloropropham is 2.5 compared to 12,500 for AZT. The therapeutic index is ratio of toxic dose of the drug to the efficacious dose of the drug.

[4] = test system: colon tumor cells (HT29); assay: MTT cell viability test, colon tumor cells; type: cell-based; conditions: Homo sapiens, HT-29, 120 h
Description: (§5) The following cell culture tests were performed to test the toxicity of N-chlorophenylcarbamates and N-chlorophenylthiocarbamates compounds on colon, breast and lung human tumor cells. The viability of the cells were tested by looking at MTT (3-[4,5-dimethylthiazol-2-yl]-2,5-diphenyltetrazolium bromide) reduction. MTT assay is a well known measure of cell viability.
(§6) The colon tumor cells (HT29 from American Type Culture Collection (ATCC)) and the breast cells (MX1 from cell lines from ATCC) were cultured in Eagle's Minimal Essential Medium with 10% fetal bovine serum. The lung tumor cells (A549 from ATCC cell lines) were cultured in Ham's F12 medium with 10% fetal bovine serum.
(§7) The tumor cells were passaged and seeded into culture flasks at the desired cell densities. The culture medium was decanted and the cell sheets were washed twice with phosphate buffered saline (PBS). The cells were trypsinized and triturated prior to seeding the flasks. Unless otherwise indicated the cultures were incubated at 37±1° C. in a humidified atmosphere of 5±1% carbon dioxide in air. The cultures were incubated until they were 50-80% confluent.
(§8) The cells were subcultured when the flasks were subconfluent. The medium was aspired from the flasks and the cell sheets rinsed twice with PBS. Next, the Trypsin Solution was added to each flask to cover the cell sheet. The Trypsin Solution was removed after 30-60 seconds and the flasks were incubated at room temperature for two to six minutes. When 90% of the cells became dislodged, growth medium was added. The cells were removed by trituration and transferred to a sterile centrifuge tube. The concentration of cells in the suspension was determined, and an appropriate dilution was made to obtain a density of 5000 cells/ml. The cells were subcultured into the designated wells of the 96-well bioassay plates (200 microliter cell suspension per well). PBS was added to all the remaining wells to maintain humidity. The plates were then incubated overnight before test article treatment.
(§9) Each dose of test article was tested by treating quadruplicate wells of cultures with 100 microliter of each dilution. Those wells designated as solvent controls received an additional 100 microliters of methanol control; negative controls wells received an additional 100 microliters of treatment medium. PBS was added to the remaining wells not treated with test article or medium. The plates were then incubated for approximately 5 days. […]
(§10) The absorbance at 550 nm (OD550) of each well was measured with a Molecular Devices (Menlo Park, Calif.) VMax plate reader.
(§11) The mean OD550 of the solvent control wells and that of each test article dilution, and that of each of the blank wells and the positive control were calculated. […]

[5] = test system: breast cells (MX1); assay: MTT cell viability test, breast cells; type: cell-based; conditions: Homo sapiens, 120 h
Description: as §5, §6, §7, §8, §9, §10, §11

[6] = test system: lung tumor cells (A549); assay: MTT cell viability test, lung tumor cells; type: cell-based; conditions: Homo sapiens, A549, 120 h
Description: as §5, §6, §7, §8, §9, §10, §11

[7] = test system: Broncheal Cells; assay: EC-50 in normal healthy cells, bronchial cells; type: cell-based
[8] = test system: Kerotinoyle Cells; assay: EC-50 in normal healthy cells, keratinocytes; type: cell-based; conditions: Keratinocyte
[9] = test system: Fibroblasts; assay: EC-50 in normal healthy cells, fibroblasts; type: cell-based; conditions: Fibroblast
[10] = test system: HIV replication in T-cells (chronic HIV-1 infected T-cells, ACH-2); assay: HIV chronic study, chronically HIV-1 infected ACH-2 T-cells; type: cell-based; conditions: chronic HIV model, ACH-2 cells
Description: as §1, §2, §3, §4

[11] = test system: breast, colon, non-small cell lung and ovarian tumors; assay: In vitro human tumor colony forming units test, continuous exposure; type: cell-based
Description: Solid tumors removed from patients are minced into 2 to 5 mm fragments and immediately placed in McCoy's Medium 5A plus 10% heat inactivated newborn calf serum plus 1% penicillin/streptomycin. Within 4 hours, these solids tumors are mechanically disassociated with scissors, forced through No. 100 stainless steel mesh, through 25 gauge needles, and then washed with McCoy's medium as described above. Ascitic, pleural, pericardial fluids and bone marrow are obtained by standard techniques. The fluid or marrow is placed in sterile containers containing 10 units of preservative free heparin per ml. of malignant fluid or marrow. After centrifugation at 150×g for 10 minutes, the cells are harvested and washed with McCoy's medium plus 10% heat inactivated calf serum. The viability of cell suspensions is determined on a hemocytometer with trypan blue.
Cells to be cloned are suspended in 0.3% agar in enriched CMRL1066 supplemented with 15% heat inactivated horse serum, penicillin (100 units/ml), streptomycin (2 mg/ml), glutamine (2 mM), insulin (3 units/ml), asparagine (0.6 mg/ml), and HEPES buffer (2 mM). For the continuous exposure test each compound is added to the above mixture. […] If there is <30% colonies in the positive control when compared to the untreated control, the test is evaluated.

[12] = test system: breast cancer (MXI); assay: In vivo mouse model for breast cancer
[13] = test system: leukemia (P388); assay: In vivo mouse model for leukemia
[14] = test system: murine melanoma (B16); assay: In vivo mouse model for murine melanoma
[15] = test system: influenza; assay: In vivo model for influenza
[16] = test system: influenza; assay: In vitro model for influenza; type: cell-based
[17] = test system: herpes; assay: In vitro herpes screening model; type: cell-based
[18] = test system: Rhinovirus; assay: In vivo Rhinovirus screening test
[19] = doses from 50-400 mg/kg; 1958, 1959, 1972; cited from earlier work
[20] = 75 mg/kg dose, positive control

`Nc1nc2c(ncn2COCCO)c(=O)[nH]1` [acyclovir, reference compound] gave a mean death date [1, 20] of 17.2 days and a mice survived [1, 20] of 60%.

In the case of `Cc1cn([C@H]2C[C@H](N=[N+]=[N-])[C@@H](CO)O2)c(=O)[nH]c1=O` [AZT, reference compound], the “action in the HIV chronic model” value [2] is reported as “no action” and the “inhibition of viral replication” value ([3]; 1 μg/ml) is reported as 98%.

`COc1cccc2c1C(=O)c1c(O)c3c(c(O)c1C2=O)C[C@@](O)(C(=O)CO)C[C@@H]3O[C@H]1C[C@H](N)[C@H](O)[C@H](C)O1` [Adriamycin, doxorubicin (adriamycin), reference compound] showed an EC50 ([4]; MTT, 5 day incubation, first HT29 column, read-out: EC-50 Result HT29) of 0.003 µg/mL (≈ 0.00552 µM), an EC50 ([4]; MTT, 5 day incubation, second HT29 column, read-out: EC-50 Result HT29) of 0.006 µg/mL (≈ 0.011 µM) and an EC50 ([5]; MTT, 5 day incubation, first MX1 column, read-out: EC-50 Result MX1) of 0.02 µg/mL (≈ 0.0368 µM). For the same molecule, the EC50 ([5]; MTT, 5 day incubation, second MX1 column, read-out: EC-50 Result MX1) was 0.001 µg/mL (≈ 0.00184 µM), the EC50 ([6]; MTT, 5 day incubation, first A549 column, read-out: EC-50 Result A549) was 0.03 µg/mL (≈ 0.0552 µM) and the EC50 ([6]; MTT, 5 day incubation, second A549 column, read-out: EC-50 Result A549) was 0.009 µg/mL (≈ 0.0166 µM). For the same molecule, the EC50 ([7]; normal healthy cells, first value, read-out: EC-50 Broncheal Cells) was 0.015 µg/mL (≈ 0.0276 µM), the EC50 ([7]; normal healthy cells, second value, read-out: EC-50 Broncheal Cells) was 0.002 µg/mL (≈ 0.00368 µM) and the EC50 ([8]; normal healthy cells, first value, read-out: EC-50 Kerotinoyle Cells) was 0.0035 µg/mL (≈ 0.00644 µM). The EC50 ([8]; normal healthy cells, second value, read-out: EC-50 Kerotinoyle Cells) was 0.0093 µg/mL (≈ 0.0171 µM), the EC50 ([9]; normal healthy cells, first value, read-out: EC-50 Fibroblasts) was 0.065 µg/mL (≈ 0.12 µM) and the EC50 ([9]; normal healthy cells, second value, read-out: EC-50 Fibroblasts) was 0.1 µg/mL (≈ 0.184 µM).

With `CC(C)OC(=O)Nc1cccc(Cl)c1` [Chloropropham, (3-chlorophenyl)carbamic acid 1-methylethyl ester] the “suppression of HIV replication in monocytes” value ([2]; chronic HIV model, U1 cells) was 79%, the “increase in HIV replication in T-cells” value [10] was 101% and the inhibition at 10 µg/mL ([3]; Human immunodeficiency virus 1, 10 μg/ml, read-out: inhibition of viral replication) was 47%. For the same molecule, the mean death date ([1]; 150 mg/kg dose) was 10.2, the mice survived ([1]; 150 mg/kg dose) was 60% and the “effective against tumors (fraction)” value ([11]; 100 μg/ml, continuous exposure, breast, colon, non-small cell lung and ovarian tumors) was 6/7. The effectiveness against tumors ([11]; 1 and 10.0 μg/ml) was “not effective”, the EC50 ([4]; read-out: EC-50 Result HT29, MTT, 5 day incubation, first HT29 column) was 13.3 µg/mL (≈ 62.2 µM) and the EC50 ([4]; read-out: EC-50 Result HT29, MTT, 5 day incubation, second HT29 column) was 11.4 µg/mL (≈ 53.4 µM). For the same molecule, the EC50 ([5]; read-out: EC-50 Result MX1, MTT, 5 day incubation, first MX1 column) was 91.8 µg/mL (≈ 430 µM), the EC50 ([5]; read-out: EC-50 Result MX1, MTT, 5 day incubation, second MX1 column) was 108 µg/mL (≈ 505 µM) and the EC50 ([6]; read-out: EC-50 Result A549, MTT, 5 day incubation, first A549 column) was 12.6 µg/mL (≈ 59 µM). The EC50 ([6]; read-out: EC-50 Result A549, MTT, 5 day incubation, second A549 column) was 92.5 µg/mL (≈ 433 µM), the EC50 ([7]; read-out: EC-50 Broncheal Cells, normal healthy cells, second value) was > 15.2 µg/mL and the EC50 ([8]; read-out: EC-50 Kerotinoyle Cells, normal healthy cells, first value) was 3.9 µg/mL (≈ 18.3 µM). For the same molecule, the EC50 ([8]; read-out: EC-50 Kerotinoyle Cells, normal healthy cells, second value) was 13 µg/mL (≈ 60.8 µM), the EC50 ([9]; read-out: EC-50 Fibroblasts, normal healthy cells, first value) was > 152 µg/mL and the EC50 ([9]; read-out: EC-50 Fibroblasts, normal healthy cells, second value) was 64.2 µg/mL (≈ 300 µM). The “activity in in vivo mouse model for breast cancer (MXI)” value [12] was “no activity”, the “activity in in vivo mouse model for leukemia (P388)” value [13] was “no activity” and the “activity in in vivo mouse model for murine melanoma (B16)” value [14] was “no activity”. The “activity in in vivo model for influenza” value [15] was “did not show activity”, the “activity in in vitro model for influenza” value [16] was “did not show activity” and the “activity in in vitro herpes screening model” value [17] was “Nor was it active”. For the same molecule, the “activity in in vivo Rhinovirus screening test” value [18] was “Nor was it active” and the “activity in National Cancer Institute tests” value [19] was “no activity”.
